Measured values: US11192865B2, “Benzosulfonyl compounds” (Vivace Therapeutics, Inc., priority 2017, dated 2021)
pIC50: −log10 of the molar value.

Tested on: 8XTBD luciferase reporter
Experiment: YAP Reporter Assay
Assay type: cell-based
Conditions: Homo sapiens, HEK-293T; HEK293T cells stably transfected with 8XTBD luciferase reporter and pRLTK; 24-hr incubation; starting from 3 μM, 1:3 dilution, 10 points; read-out: Firefly Luciferase IC50
How it was run: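 HEK293T cells stably carrying the 8XTBD firefly luciferase reporter and TK-renilla control received compounds at a 10-point, 1:3 series from 3 μM (final) in quadruplicate. After 24 h at 37° C, Dual-Glo luminescence was read. IC50 and maximal inhibition were reported separately for firefly and renilla signals.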

Compound	pIC50
CNS(=O)(=O)c1ccc(NC2CCCCC2)c(-c2nnn(C3CC3)n2)c1 [Compound 71, 4-(cyclohexylamino)-3-(2-cyclopropyl-2H-tetrazol-5-yl)-N-methylbenzene sulfonamide]	< 5.52
CNS(=O)(=O)c1ccc(NC2CCCCC2)c(-c2nnn(C3CCN(c4ccccc4)C3)n2)c1 (stereo not drawn) [Compound 37, 4-(cyclohexylamino)-N-methyl-3-(2-(1-phenylpyrrolidin-3-yl)-2H-tetrazol-5-yl)benzenesulfonamide]	< 5.52
CNS(=O)(=O)c1ccc(NC2CCCCC2)c(-c2nnn(C3CCN(C(C)C)CC3)n2)c1 [Compound 46, 4-(cyclohexylamino)-3-(2-(1-isopropylpiperidin-4-yl)-2H-tetrazol-5-yl)-N-methylbenzenesulfonamide]	< 5.52

Stronger by pIC50, values ahead:

pIC50	Compound
6.00 to 7.00	CNS(=O)(=O)c1ccc(NC2CCCCC2)c(-c2nnn(C3CCCN(C(=O)OC(C)(C)C)C3)n2)c1 (stereo not drawn) [Compound 59, tert-butyl 3-(5-(2-(cyclohexylamino)-5-(N-methylsulfamoyl)phenyl)-2H-tetrazol-2-yl)piperidine-1-carboxylate]
≥ 7.00	CNS(=O)(=O)c1ccc(Nc2ccc(C(F)(F)F)cc2)c(-c2nnn(Cc3ccccc3F)n2)c1 [Compound 137, 3-[2-[(2-Fluorophenyl)methyl]tetrazol-5-yl]-N-methyl-4-[4-(trifluoromethyl)anilino]benzene-sulfonamide]
≥ 7.00	CNS(=O)(=O)c1ccc(Nc2ccc(Cl)c(Cl)c2)c(-c2cn(C)cn2)c1 [Compound 140, 4-(3,4-dichloroanilino)-N-methyl-3-(1-methylimidazol-4-yl)benzenesulfonamide]
